Measured values from patent US6358736B1, “Method for increasing the antigen presenting ability of leukemia cells” (The United States of America as represented by the …, priority 1995, dated 2002).
Entries after “also recorded” stand apart in the source; their conditions may differ.

Assays:
[1] = system: human peripheral blood monocytes; assay: FACS analysis of cell surface markers on cultured peripheral blood monocytes; type: cell-based
HL-60 cells [2] = assay: FACS analysis of cell surface markers on HL-60 cells; type: cell-based, human; details: 24 hours
Experimental: Calcium was removed from cultured cells by two methods.
The second method involved washing the cells extensively in calcium-free RPMI medium, and culturing them in the same calcium-free medium supplemented with serum that had been dialyzed against calcium-free phosphate-buffered saline.
The calmodulin kinase inhibitors KN-62 (20 uM) or KT-5926 (1 uM) was added to HL-60 cells in the presence of 188 ng/ml A23187. Twenty four hours later the level of CD80 was analyzed.
Thapsigargin was added to cultured human peripheral blood monocytes and HL-60 cells in concentrations ranging from 0 to 1000 nM. Cells were harvested 24 hours later and evaluated for the acquisition of ADC immunophenotypic characteristics by FACS analysis.
Cells were harvested after three days, irradiated (3000R), then FACS analyzed or cocultured in graded numbers with freshly prepared naive (CD45RO negative) T lymphocytes. Allosensitization was assessed by pulsing at day 4 with ^3H-TdR and harvesting 18 hours later.

WEHI-3 = assay: Costimulatory molecule expression on mouse myeloid leukemia line; type: cell-based; details: following calcium mobilization
Description: Myeloid leukemia cell lines display marked upregulation of molecules linked to antigen-presentation and acquire increased T cell sensitizing capacity following calcium mobilization with either calcium ionophore or thapsigargin.

HL-60 cells [3] = assay: FACS analysis of cell surface markers on HL-60 cells; type: cell-based, human; details: optimal doses, within 20 hours
monocytes = assay: Calcium-chelation luminescence spectrophotometry of intracellular calcium flux; type: cell-based, human; details: indol-loaded monocytes; calcium ionophore 180-750 ng/ml
Experimental: Calcium-chelation luminescence spectrophotometry was utilized to measure intracellular calcium fluxes in monocytes. Monoytes were incubated with 5 uM/ml indol, a calcium chelating agent which emits fluorescence at different wavelengths (405 or 480 nm) depending on whether or not it is bound to cycloplasmic calcium. Increased calcium mobilization causes relative shifts in emission from one wavelength to the other. After 30 minute incubation with indol, monocytes were washed, pulsed with a variety of agents such as calcium ionophore, virus, f-MET-LEU-PHE, or LPS. To measure calcium fluxes at subsequent time intervals, cells were stimulated with a 355 nm wavelength beam, and fluorescence emission measured at 405 and 480 nm.

Row | Compound | upregulation of CD80, CD86, CD40, HLA-DR, HLA-ABC, ICAM-1 and CD83 as magnitude of that with optimal (750 ng/ml) A23187 ([1]; thapsigargin 750 nM, 24 hours) | CD14 downregulation, effectiveness relative to ionophore ([1]; thapsigargin, 24 hours) | dose giving optimal response (HL-60 cells [2]; range 0 to 1000 nM) [nM] | levels of CD80, CD86 and ICAM-1 relative to those observed with ionophore (HL-60 cells [2]; thapsigargin 250 nM) | costimulatory molecule expression (WEHI-3) | expression of CD83, ICAM-1, B7.1 and B7.2 (HL-60 cells [3]) | induction of activated myeloid dendritic cell phenotype (CD80 and CD83 expression) ([1]; 20-40 hours, wide dose range, alone or in combination) | intracellular calcium flux / mobilization (monocytes)
1 | C/C=C(/C)C(=O)O[C@H]1C(C)=C2[C@H]([C@@H]1OC(=O)CCCCCCC)[C@@](C)(OC(C)=O)C[C@H](OC(=O)CCC)[C@@]1(O)[C@H]2OC(=O)[C@@]1(C)O [thapsigargin] | about 50% | about 75% | 250 | 50-75% | markedly increased costimulatory molecule expression | uniform de novo expression of CD83, ICAM-1, B7.1, and B7.2 | – | –
2 | f-MET-LEU-PHE | – | – | – | – | – | – | do not induce monocytes to express the phenotype of activated myeloid dendritic cells; also recorded: does not induce that phenotype | only a brief calcium flux of much lower magnitude
